A short description of this data set: solubility of active ingredients in base oil composition. The format is physicochemical. The conditions noted are these: for Loading (wt %), soluble in base oil composition: loading not marked with *. From the text: The booster compositions described above include the active ingredients noted specifically for the categorical skin condition (e.g., skin brightness, skin wrinkles, visibility of pores, skin texture, and/or skin redness). In addition, the compositions cosolubilize to permit easy dispersion of the booster composition into the base oil composition. In addition to easy dispersion, the system according to the present disclosure ensures rapid homogeneity of the final products after combination of booster and base components by the consumer. In each of the booster compositions, at least one of the ingredients in the base oil composition are included in the booster compositions. For example, in one embodiment, squalane is included in each of the booster compositions. In one particularly advantageous embodiment, greater than about 20% or greater than about 25% or greater than about 30% or greater than about 35%, by weight of total composition squalane is included in each of the booster compositions. Visual assessment may be conducted to ensure cosolubility. For example, cosolubility may be determined by visual determination of incompatibility, immicible components, precipitates or other visual indicators indicating a lack of cosolubility.

Several values for one entry are separate records, joined by “and”; a condition that tells them apart may be missing. Equal values may be shown once.

On to `CC(c1ccccc1)c1ccc(O)cc1O` (stereo not shown) [Phenylethyl Resorcinol], for which the “Loading (wt %), soluble in base oil composition” value (“Loading (wt %), soluble” below) was 5% wt % and 10% wt % and 15% wt %.

Consider `CCCCCCCCC(CCCCCC)C(=O)OC[C@H](OC(=O)C(CCCCCC)CCCCCCCC)[C@H]1OC(=O)C(OC(=O)C(CCCCCC)CCCCCCCC)=C1OC(=O)C(CCCCCC)CCCCCCCC` (stereo partly shown) [Ascorbyl Tetraisopalmitate], for which the “Loading (wt %), soluble” value is 40% wt % and 50% wt % and 60% wt %.

With `O=C(O)c1ccccc1O` [Salicylic Acid], the “Loading (wt %), soluble” value is 3% wt %. Moreover, the “Loading (wt %), insoluble in base oil composition” value (loading marked * = Insoluble) was 5%* wt % and 10%* wt % and 15%* wt %.
